Data from ChEMBL document CHEMBL3885861, “Open TG-GATES”.

Organism: Rattus norvegicus
Assay: Open TG-GATES - Regimen: Single
Assay type: toxicity, organism-based, Sprague-Dawley
Set-up: regimen Single, gender Male, age 6 weeks
Conditions: in vivo, po, 120 mg/kg, route gavage, dose level Middle; for APTT / Bas / Eos / Fbg / Hb / Ht / Lym / MCH / MCHC / MCV / Mono / Neu / PT / Plat / RBC / Ret / WBC: tissue Blood; for KIDNEY_L / KIDNEY_R / KIDNEY_TOTAL: tissue Kidney; for LIVER: tissue Liver; for A/G / ALP / ALT / AST / BUN / CRE / Ca / Cl / DBIL / GLC / IP / K / LDH / Na / PL / RALB / TBIL / TC / TG / TP / gamma-GTP: tissue Plasma

With `Cc1cccc(C)c1OCC(C)N` (configuration not stated) [MEXILETINE] the TERMINAL_BW (3 h) was 218.1 g, the APTT (3 h) was 21.8 s and the Bas (3 h) was 0%. The Eos (3 h) was 0.4%, the Fbg (3 h) was 310.2 mg/dL and the Hb (3 h) was 13.1 g/dL. For the same compound, the Ht (3 h) was 40.6%, the Lym (3 h) was 83.2% and the MCH (3 h) was 20.1 pg. The MCHC (3 h) was 32.2%, the MCV (3 h) was 62.6 fL and the Mono (3 h) was 2%. For the same compound, the Neu (3 h) was 13.6%, the PT (3 h) was 15.9 s and the Plat (3 h) was 113.4 x10_4/uL. It also gave an RBC (3 h) of 648.8 x10_4/ul, a Ret (3 h) of 7.3% and a WBC (3 h) of 96 x10_2/uL. The KIDNEY_L (3 h) was 1 g, the KIDNEY_R (3 h) was 1 g and the KIDNEY_TOTAL (3 h) was 1.9 g. It also gave an LIVER (3 h) of 10.1 g, an A/G (3 h) of 1.3 and an ALP (3 h) of 1543.6 IU/L. The ALT (3 h) was 54.4 IU/L, the AST (3 h) was 78.4 IU/L and the BUN (3 h) was 12.8 mg/dL. The CRE (3 h) was 0.2 mg/dL, the Ca (3 h) was 10.5 mg/dL and the Cl (3 h) was 106.4 meq/L. The DBIL (3 h) was 0 mg/dL, the GLC (3 h) was 182.6 mg/dL and the IP (3 h) was 9.4 mg/dL. It also gave a K (3 h) of 4.4 meq/L, an LDH (3 h) of 175.2 IU/L and a Na (3 h) of 141.6 meq/L. The PL (3 h) was 135 mg/dL, the RALB (3 h) was 3.1 g/dL and the TBIL (3 h) was 0.018 mg/dL. It also gave a TC (3 h) of 77.2 mg/dL, a TG (3 h) of 61.8 mg/dL and a TP (3 h) of 5.5 g/dL. For the same compound, the gamma-GTP (3 h) was 1.2 IU/L, the TERMINAL_BW (6 h) was 209 g and the APTT (6 h) was 21.2 s. The Bas (6 h) was 0%, the Eos (6 h) was 0.8% and the Fbg (6 h) was 318.6 mg/dL. The Hb (6 h) was 13.2 g/dL, the Ht (6 h) was 40.5% and the Lym (6 h) was 77.4%. The MCH (6 h) was 20.4 pg, the MCHC (6 h) was 32.6% and the MCV (6 h) was 62.6 fL. For the same compound, the Mono (6 h) was 2.4%, the Neu (6 h) was 19% and the PT (6 h) was 16.1 s. It also gave a Plat (6 h) of 120.4 x10_4/uL, an RBC (6 h) of 647 x10_4/ul and a Ret (6 h) of 6.8%. It also gave a WBC (6 h) of 69.3 x10_2/uL, a KIDNEY_L (6 h) of 0.9 g and a KIDNEY_R (6 h) of 0.9 g. The KIDNEY_TOTAL (6 h) was 1.9 g, the LIVER (6 h) was 9 g and the A/G (6 h) was 1.2. For the same compound, the ALP (6 h) was 1633.4 IU/L, the ALT (6 h) was 43.8 IU/L and the AST (6 h) was 73.4 IU/L. The BUN (6 h) was 9.8 mg/dL, the CRE (6 h) was 0.2 mg/dL and the Ca (6 h) was 10.6 mg/dL. For the same compound, the Cl (6 h) was 107.4 meq/L, the DBIL (6 h) was 0 mg/dL and the GLC (6 h) was 184.6 mg/dL. For the same compound, the IP (6 h) was 8.6 mg/dL, the K (6 h) was 4.1 meq/L and the LDH (6 h) was 179.2 IU/L. For the same compound, the Na (6 h) was 142 meq/L, the PL (6 h) was 124.6 mg/dL and the RALB (6 h) was 3.1 g/dL. For the same compound, the TBIL (6 h) was 0.03 mg/dL, the TC (6 h) was 68.6 mg/dL and the TG (6 h) was 48.6 mg/dL. It also gave a TP (6 h) of 5.7 g/dL, a gamma-GTP (6 h) of 1.2 IU/L and a TERMINAL_BW (9 h) of 219.2 g. It also gave an APTT (9 h) of 22.9 s, a Bas (9 h) of 0% and an Eos (9 h) of 1%. The Fbg (9 h) was 318.6 mg/dL, the Hb (9 h) was 12.6 g/dL and the Ht (9 h) was 39%. It also gave a Lym (9 h) of 78.6%, an MCH (9 h) of 20.2 pg and an MCHC (9 h) of 32.3%. It also gave an MCV (9 h) of 62.6 fL, a Mono (9 h) of 2.4% and a Neu (9 h) of 17.2%. It also gave a PT (9 h) of 16.3 s, a Plat (9 h) of 120 x10_4/uL and an RBC (9 h) of 624 x10_4/ul. For the same compound, the Ret (9 h) was 7.2%, the WBC (9 h) was 97.2 x10_2/uL and the KIDNEY_L (9 h) was 1 g. For the same compound, the KIDNEY_R (9 h) was 1 g, the KIDNEY_TOTAL (9 h) was 2 g and the LIVER (9 h) was 9.5 g. The A/G (9 h) was 1.2, the ALP (9 h) was 1531 IU/L and the ALT (9 h) was 44.6 IU/L. The AST (9 h) was 71.8 IU/L, the BUN (9 h) was 10.6 mg/dL and the CRE (9 h) was 0.2 mg/dL. For the same compound, the Ca (9 h) was 10.6 mg/dL, the Cl (9 h) was 104.6 meq/L and the DBIL (9 h) was 0 mg/dL. It also gave a GLC (9 h) of 188.4 mg/dL, an IP (9 h) of 9 mg/dL and a K (9 h) of 4.3 meq/L. The LDH (9 h) was 143.8 IU/L, the Na (9 h) was 140.2 meq/L and the PL (9 h) was 130.4 mg/dL. For the same compound, the RALB (9 h) was 3 g/dL, the TBIL (9 h) was 0.02 mg/dL and the TC (9 h) was 74 mg/dL. The TG (9 h) was 66.8 mg/dL, the TP (9 h) was 5.4 g/dL and the gamma-GTP (9 h) was 1.2 IU/L. It also gave a TERMINAL_BW (24 h) of 231.4 g, an APTT (24 h) of 19.9 s and a Bas (24 h) of 0%. It also gave an Eos (24 h) of 0.8%, a Fbg (24 h) of 293.8 mg/dL and a Hb (24 h) of 12.8 g/dL. For the same compound, the Ht (24 h) was 39.5%, the Lym (24 h) was 81% and the MCH (24 h) was 20.6 pg. The MCHC (24 h) was 32.3%, the MCV (24 h) was 63.8 fL and the Mono (24 h) was 2.4%. The Neu (24 h) was 15.2%, the PT (24 h) was 15.9 s and the Plat (24 h) was 117.4 x10_4/uL. For the same compound, the RBC (24 h) was 619.8 x10_4/ul, the Ret (24 h) was 7.6% and the WBC (24 h) was 86.1 x10_2/uL. For the same compound, the KIDNEY_L (24 h) was 1 g, the KIDNEY_R (24 h) was 1 g and the KIDNEY_TOTAL (24 h) was 2 g. For the same compound, the LIVER (24 h) was 10.8 g, the A/G (24 h) was 1.3 and the ALP (24 h) was 1779.4 IU/L. It also gave an ALT (24 h) of 50 IU/L, an AST (24 h) of 75 IU/L and a BUN (24 h) of 17.2 mg/dL. It also gave a CRE (24 h) of 0.2 mg/dL, a Ca (24 h) of 10.7 mg/dL and a Cl (24 h) of 106.2 meq/L. For the same compound, the DBIL (24 h) was 0 mg/dL, the GLC (24 h) was 188.6 mg/dL and the IP (24 h) was 7.6 mg/dL. For the same compound, the K (24 h) was 4.2 meq/L, the LDH (24 h) was 205 IU/L and the Na (24 h) was 141.4 meq/L. It also gave a PL (24 h) of 148.4 mg/dL, an RALB (24 h) of 3.1 g/dL and a TBIL (24 h) of 0.008 mg/dL. For the same compound, the TC (24 h) was 74.2 mg/dL, the TG (24 h) was 150.8 mg/dL and the TP (24 h) was 5.6 g/dL. The gamma-GTP (24 h) was 1.6 IU/L.
